This assay has as its target T1, human calcium receptor (Homo sapiens, UniProt P41180, R990G).
T1 construct: expressed in transfected cells; host or cells: HEK 293
T1 sequence (P41180 20-1078 R990G): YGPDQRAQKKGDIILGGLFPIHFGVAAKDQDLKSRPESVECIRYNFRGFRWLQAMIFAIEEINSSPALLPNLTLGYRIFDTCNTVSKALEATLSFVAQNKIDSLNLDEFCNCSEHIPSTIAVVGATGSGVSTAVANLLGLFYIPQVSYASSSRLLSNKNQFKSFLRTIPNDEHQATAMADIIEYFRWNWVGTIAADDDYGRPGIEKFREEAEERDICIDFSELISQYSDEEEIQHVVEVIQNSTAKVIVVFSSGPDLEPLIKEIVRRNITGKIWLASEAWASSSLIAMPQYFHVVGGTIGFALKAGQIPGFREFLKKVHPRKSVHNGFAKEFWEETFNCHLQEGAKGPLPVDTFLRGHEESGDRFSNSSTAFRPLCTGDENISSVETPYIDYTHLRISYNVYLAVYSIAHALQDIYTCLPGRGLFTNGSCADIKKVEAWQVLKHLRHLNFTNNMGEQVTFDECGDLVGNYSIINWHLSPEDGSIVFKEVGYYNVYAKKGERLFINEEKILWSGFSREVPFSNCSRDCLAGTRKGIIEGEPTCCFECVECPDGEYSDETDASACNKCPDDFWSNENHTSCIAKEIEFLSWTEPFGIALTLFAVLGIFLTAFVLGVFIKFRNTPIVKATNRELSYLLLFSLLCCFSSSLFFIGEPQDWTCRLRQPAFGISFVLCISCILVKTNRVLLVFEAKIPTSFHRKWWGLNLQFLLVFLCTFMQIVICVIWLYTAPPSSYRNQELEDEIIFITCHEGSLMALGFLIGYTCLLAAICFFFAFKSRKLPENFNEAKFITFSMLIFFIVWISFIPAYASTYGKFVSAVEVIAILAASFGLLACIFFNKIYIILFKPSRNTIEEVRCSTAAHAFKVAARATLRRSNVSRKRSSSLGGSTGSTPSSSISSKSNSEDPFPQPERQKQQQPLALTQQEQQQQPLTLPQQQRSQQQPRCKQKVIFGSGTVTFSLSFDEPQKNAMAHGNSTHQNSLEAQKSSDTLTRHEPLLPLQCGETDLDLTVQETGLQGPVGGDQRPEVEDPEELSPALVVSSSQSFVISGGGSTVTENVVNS
Nature of the assay: increases in [Ca^2+ ]i in HEK-293 cells expressing the human calcium receptor (fura-2 loaded HEK 293/pHuPCaR4.0 cells), % activity. In kind it is cell-based.

Each structure is given as a SMILES string. Like-named read-outs stand apart in the source and are kept apart here.

The values that follow come from patent US6211244A, “Calcium receptor-active compounds” (priority 1995, dated 2001).

For the compound `CCOC(=O)COc1cccc(C(C)NCc2ccc(OC)c(C)c2)c1` (centres unmarked) [Compound 24V], the “% activity” value runs as follows: (33 ng/mL) 71%; (330 ng/mL) 98%; (3300 ng/mL) 127%.
On to `CC(NCCC(c1ccccc1)c1ccccc1)c1cccc(F)c1` (centres unmarked) [Compound 3B], for which the “% activity” value came to 15. Further, the “% activity” value (330 ng/mL) came out at 52%.
On to `C[C@@H](N[C@H](C)c1cccc2ccccc12)c1ccc2ccccc2c1.Cl` [Compound 9R, (R)-N-(1-(2-naphthyl)ethyl)-(R)-1-(1-naphthyl)ethylamine hydrochloride], for which the “% activity” value by setting is: (33 ng/mL) 101%; (330 ng/mL) 108%.
With `CCOc1cccc([C@@H](C)NCCCc2ccccc2Cl)c1` [Compound 6T, (R)-N-[3-(2-chlorophenyl)propyl]-1-(3-ethoxyphenyl)ethylamine], the “% activity” value is given as 78% (33 ng/mL), 129% (330 ng/mL) and 123% (3300 ng/mL).
In the case of `COc1cccc([C@@H](C)NCCCc2cc(F)ccc2F)c1` [Compound 24K], the “% activity” value reads like this: (33 ng/mL) 78%; (330 ng/mL) 106%.
With `C[C@@H](NCc1ccc(I)cc1)c1cccc2ccccc12` [Compound 17E], the “% activity” value is 110% (33 ng/mL), 110% (330 ng/mL) and 116% (3300 ng/mL).
In the case of `COc1ccc(CN[C@H](C)c2cccc3ccccc23)cc1` [Compound 13U], the “% activity” value came out at 79% (33 ng/mL) and 108% (330 ng/mL).
With `Cc1ccc(CNC(C)c2ccc(C(C)(C)C)cc2)cc1` (centres unmarked) [Compound 14B], the “% activity” value runs as follows: (33 ng/mL) 11%; (330 ng/mL) 55%; (3300 ng/mL) 75%.
Turning to `COC(=O)c1cccc(C(C)NCc2ccc(OC)c(C)c2)c1` (centres unmarked) [Compound 24U], the “% activity” value came to 78% (33 ng/mL), 106% (330 ng/mL) and 106% (3300 ng/mL).
`CCc1ccc(CN[C@H](C)c2cccc3ccccc23)cc1` [Compound 13N]: the “% activity” value by setting is: (33 ng/mL) 88%; (330 ng/mL) 114%.
Turning to `COc1ccc(CNC(C)c2ccc(F)c(F)c2)cc1C` (centres unmarked) [Compound 24I], the “% activity” value (33 ng/mL) was found to be 55%, the “% activity” value (330 ng/mL) was 84% and the “% activity” value (3300 ng/mL) is reported as 109%.
With `COc1cccc([C@@H](C)N[C@H](C)CCc2cccc(C(F)(F)F)c2)c1` [Compound 21Y, (R,R)-N-[4-(3-trifluoromethylphenyl)-2-butyl]-1-(3-methoxyphenyl)ethylamine], the “% activity” value is listed as 68% (33 ng/mL) and 100% (330 ng/mL).
Regarding `COc1cccc(C(C)NCCCC2CCCCC2)c1` (centres unmarked) [Compound 7X], the “% activity” value (330 ng/mL) is given as 85%.
Regarding `COc1cccc([C@@H](C)N[C@@H](C)CCc2ccccc2)c1` [Compound 21E, (S,R)-N-(4-pbenyl-2-butyl)-1-(3-methoxyphenyl)ethylamine], the “% activity” value (33 ng/mL) amounted to 64% and the “% activity” value (330 ng/mL) is recorded as 94%.
The like results for `COc1cccc(C(C)NCCCc2ccccc2F)c1` (centres unmarked) [Compound 4M] were, in that order, 34% and 68%.
For `CC(NC(C)c1cccc2ccccc12)c1ccc(Cl)c(Cl)c1` (centres unmarked) [Compound 17J], the “% activity” value by setting is: (33 ng/mL) 122%; (330 ng/mL) 118%; (3300 ng/mL) 116%.
`CC(=O)c1cccc(C(C)NCCCc2ccccc2)c1` (centres unmarked) [Compound 7W]: the “% activity” value (330 ng/mL) stood at 76%.
As to `COc1cccc([C@@H](C)NCC=Cc2ccccc2)c1` [Compound 25E, (R)-N-(3-phenylprop-2-enyl)-1-(3-methoxyphenyl)ethylamine], the “% activity” value by setting is: (33 ng/mL) 122%; (330 ng/mL) 129%; (3300 ng/mL) 132%.
Regarding `CC(NC(C)c1cccc2ccccc12)c1ccc2c(c1)-c1ccccc1-2` (centres unmarked) [Compound 10Q], the “% activity” value turned out to be 84% (33 ng/mL), 100% (330 ng/mL) and 103% (3300 ng/mL).
On to `C[C@@H](NCc1cccc(Cl)c1)c1cccc2ccccc12` [Compound 13M], for which the “% activity” value reads like this: (33 ng/mL) 66%; (330 ng/mL) 92%.
